Measurements as given in US7585871B2, “Phenanthridine carbonyl phenols” (Wyeth, priority 2004, dated 2009).

Target: T1, human ERα (Homo sapiens, UniProt P03372)
T1 construct: expressed in transfected cells; host or cells: HAECT-1 cells (immortalized human aortic endothelial cells) infected with Ad5-wt-hERα adenovirus
T1 sequence (P03372 1-595): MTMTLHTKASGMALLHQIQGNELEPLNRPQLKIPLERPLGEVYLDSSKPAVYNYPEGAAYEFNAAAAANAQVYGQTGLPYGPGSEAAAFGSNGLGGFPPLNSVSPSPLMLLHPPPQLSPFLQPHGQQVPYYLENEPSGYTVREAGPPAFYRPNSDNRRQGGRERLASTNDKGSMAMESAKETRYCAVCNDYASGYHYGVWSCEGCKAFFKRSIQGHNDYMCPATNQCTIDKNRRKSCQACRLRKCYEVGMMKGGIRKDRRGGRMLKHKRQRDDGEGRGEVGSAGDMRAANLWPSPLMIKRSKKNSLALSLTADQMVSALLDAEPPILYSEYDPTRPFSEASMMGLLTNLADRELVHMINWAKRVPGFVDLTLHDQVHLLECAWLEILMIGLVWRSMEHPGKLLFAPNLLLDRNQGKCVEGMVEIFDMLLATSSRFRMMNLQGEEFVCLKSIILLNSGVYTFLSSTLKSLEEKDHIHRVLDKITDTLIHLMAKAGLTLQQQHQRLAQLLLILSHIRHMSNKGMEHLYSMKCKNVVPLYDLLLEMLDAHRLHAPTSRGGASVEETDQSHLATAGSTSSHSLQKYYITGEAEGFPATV
Assay: IL-6 luciferase (IL6-luc) assay in ERα infected HAECT-1 cells
Format: cell-based
Conditions: for IC50: ERα infected HAECT-1 cells, IL-1β, Ad5-IL-6(1250 bp).Luc virus, 15-20 h; for IL6-luc (% E2): efficacy relative to E2, value in parentheses after the IC50
Description: After four hours, cells were washed with EBM-BSA and incubated overnight in the same medium. Following overnight incubation, cells were washed with EBM-BSA and infected for 2 hours with 6 ml of a 1:10 dilution of Ad5-3x(NFκB).Luc virus (Adenovirus luciferase expression vector driven by 3 repeats of the MHC NFκb site 5′ to the thymidine kinase promoter) in EBM-BSA. After two hours, cells were washed and incubated at 34° C. for 1 hour. […] Control (no ER infection) cells were processed as above without Ad5-wt-hERα virus infection.
ERα infected HAECT-1 cells or control cells were thawed, diluted 42× in warm EBM-BSA, plated into 96-well plates at 0.1 ml/well and incubated for 4 h at 34° C. […] After 15-20 h, cells are lysed with 50 ul of Promega Cell Culture Lysis reagent for ˜5 min at room temp on shaker. After lysing, 15 ul of lysate is transferred to luminometer plates for luciferase determination. […] Creatine kinase was determined from the rate of increase in A340 following addition of 100 uL of CK assay reagent (Sigma, cat. No 47-10) to the remainder of the cell lysate.
For IC50 and EC50 calculations, mean IL-6, luciferase or CK values versus log10 of the compound concentration were fitted to a four parameter logistic equation. The IC50/EC50 value, ‘Hill slope’, upper and lower limits of the curve were iteratively estimated.

| IC50 [nM] | IL6-luc (% E2) [%] | Compound |
| --- | --- | --- |
| 3 | 87 | C[C@@H]1c2ccccc2-c2ccc(Cl)cc2N1C(=O)c1ccc(O)cc1O [Example 31, 4-{[(6R)-3-chloro-6-methylphenanthridin-5(6H)-yl]carbonyl}benzene-1,3-diol] |
| 832 | 91 | C[C@H]1c2cc(F)ccc2-c2ccccc2N1C(=O)c1cc(O)ccc1Br [Example 16, 4-bromo-3-{[(6S)-8-fluoro-6-methylphenanthridin-5(6H)-yl]carbonyl}phenol] |
| 789 | 125 | C[C@H]1c2ccccc2-c2ccc(Cl)cc2N1C(=O)c1ccc(O)cc1O [Example 32, 4-{[(6S)-3-chloro-6-methylphenanthridin-5(6H)-yl]carbonyl}benzene-1,3-diol] |
| 377 | 49 | C[C@H]1c2ccccc2-c2ccc(Cl)cc2N1C(=O)c1cccc(O)c1 [Example 26, 3-{[(6S)-3-chloro-6-methylphenanthridin-5(6H)-yl]carbonyl}phenol] |
| 11 | 188 | C[C@@H]1c2ccccc2-c2ccc(F)cc2N1C(=O)c1cccc(O)c1 (single isomer, unassigned) [Example 34] |
| 364 | 113 | COc1cc(C(=O)N2c3ccccc3-c3ccc(F)cc3[C@H]2C)ccc1O [Example 17, 4-{[(6R)-8-fluoro-6-methylphenanthridin-5(6H)-yl]carbonyl}-2-methoxyphenol] |

The remaining lines, values behind:

| Compound | IC50 [nM] | IL6-luc (% E2) [%] |
| --- | --- | --- |
| C[C@@H]1c2cc(F)ccc2-c2ccccc2N1C(=O)c1cc(O)ccc1F [Example 7, 4-fluoro-3-{[(6R)-8-fluoro-6-methylphenanthridin-5(6H)-yl]carbonyl}phenol] | 263 | 70 |
| C[C@H]1c2cc(F)ccc2-c2ccccc2N1C(=O)c1ccc(O)cc1F [Example 6, 3-fluoro-4-{[(6S)-8-fluoro-6-methylphenanthridin-5(6H)-yl]carbonyl}phenol] | 403 | 90 |
| C[C@H]1c2cc(F)ccc2-c2ccccc2N1C(=O)c1ccc(O)cc1 [Example 3, 4-{[(6S)-8-fluoro-6-methylphenanthridin-5(6H)-yl]carbonyl}phenol] | 414 | 114 |
| C[C@H]1c2cc(F)ccc2-c2ccccc2N1C(=O)c1cccc(O)c1 [Example 2, 3-{[(6S)-8-fluoro-6-methylphenanthridin-5(6H)-yl]carbonyl}phenol] | 38 | 53 |
| C[C@H]1c2cc(F)ccc2-c2ccccc2N1C(=O)c1ccc(O)c(F)c1 [Example 10, 2-fluoro-4-{[(6S)-8-fluoro-6-methylphenanthridin-5(6H)-yl]carbonyl}phenol] | 1470 | 68 |
| C[C@@H]1c2cc(F)ccc2-c2ccccc2N1C(=O)c1ccc(O)cc1F [Example 5, 3-fluoro-4-{[(6R)-8-fluoro-6-methylphenanthridin-5(6H)-yl]carbonyl}phenol] | 9 | 97 |
| C[C@@H]1c2cc(F)ccc2-c2ccccc2N1C(=O)c1ccc(O)c(Br)c1 [Example 13, 2-bromo-4-{[(6R)-8-fluoro-6-methylphenanthridin-5(6H)-yl]carbonyl}phenol] | 51 | 102 |
| C[C@@H]1c2cc(F)ccc2-c2ccccc2N1C(=O)c1cc(O)ccc1Br [Example 15, 4-bromo-3-{[(6R)-8-fluoro-6-methylphenanthridin-5(6H)-yl]carbonyl}phenol] | 301 | 76 |
| C[C@@H]1c2cc(F)ccc2-c2ccccc2N1C(=O)c1ccc(O)cc1 [Example 1, 4-{[(6R)-8-fluoro-6-methylphenanthridin-5(6H)-yl]carbonyl}phenol] | 5 | 100 |
| C[C@@H]1c2cc(F)ccc2-c2ccccc2N1C(=O)c1ccc(O)c(F)c1 [Example 9, 2-fluoro-4-{[(6R)-8-fluoro-6-methylphenanthridin-5(6H)-yl]carbonyl}phenol] | 31 | 81 |
